Key:
[1] = Release test: measurement of leakage
Method: The term “Membrane disruptive function” denotes the function to bring about release in the release test. The release test described in this specification is a test comprising or consisting of adding liposomes (dispersion) encapsulating an aqueous solution containing a quenching substance and a fluorescent substance and a dispersion of a sample for evaluation to a properly pH-adjusted aqueous solution, incubating the resulting aqueous solution at 37° C. for 90 minutes or 30 minutes, and measuring the fluorescence intensity of the incubated aqueous solution. This method permits the measurement of the amount of the fluorescent substance which has been released from the liposomes. […] The release test will be described in more detail in the Examples.
The evaluation was performed with the help of EYPC liposomes which contain Pyranine (as a fluorescent substance) and DPX (as a quencher).
EYPC (3000 nmol) dissolved in chloroform was measured and placed in a 10-mL eggplant-shaped flask, and the EYPC was made into thin film with a rotary evaporator. To the flask was added a Pyranine solution (500 μL), which is composed of Pyranine (35 mM), DPX (50 mM), and MES (25 mM), and has pH 7.4. The thin film in the flask was dispersed with the help of an ultrasonic irradiator (USC-J). The resulting dispersion was passed through a porous polycarbonate film having a pore diameter of 100 nm with the help of an extruder, so as to make the particle size uniform. The resulting dispersion underwent substitution of the outer aqueous layer with the help of MES Buffer and G100 column. Thus, there was obtained a dispersion of EYPC liposomes encapsulating the fluorescent substance. The concentration of the lipid was determined with the help of phospholipid C-test Wako, and then it was adjusted with MES Buffer so that phospholipid became 1.0 mmol/L.
The dispersion of EYPC liposomes (with its concentration adjusted) in an amount of 20 μL and the dispersion of a sample for evaluation in an amount of 20 μL were added to MES Buffer (with its pH adjusted) in an amount of 2960 μL. The resulting mixture underwent incubation at 37° C. for 90 or 30 minutes. Values resulting from incubation for 90 minutes are adopted in the Examples, unless otherwise indicated.
The leakage was calculated assuming that the sheer dispersion of EYPC liposomes has 0% and the dispersion of EYPC liposomes incorporated with 30 μL of 10-fold diluted Triton-X100 has 100%. Specifically, the leakage was calculated from the following formula, L denotes the intensity of fluorescence measured, L0 denotes the intensity of fluorescence of the sheer dispersion of EYPC liposomes containing the fluorescent substance, and L100 denotes the intensity of fluorescence of the dispersion of EYPC liposomes incorporated with Triton-X100.

[2] = test system: CD80; test: Evaluation of stimulus to activate innate immune system: expression of CD80 in cultured mice spleen cells (flow cytometry); conditions: for CD80 MFI, Amphipathic substance: amphipathic substance alone; for fluorescence intensity of CD80PE compared with PBS: solution (5 μL) of sample added alone: peptide, OVA 800 μg/mL, DLPC 1000 nmol/mL, deoxycholic acid 1600 nmol/mL, FIG. 8(B)
Method: The evaluation of stimulus to activate innate immune system was performed as follows.
A spleen was harvested from C57BL/6N mice. The harvested spleen was injected with 500 μL of collagenase solution, 2 mg/mL (prepared with RPMI medium) followed by incubation at 37° C. for 30 minutes. The spleen was made into cell suspension by treatment with BD Falcon cell strainer. The cells underwent hemolysis with RBC lysis buffer, followed by washing with RPMI medium. The cells were dispersed into RPMI medium, and the number of cells was counted. The cells were used for the subsequent procedure.
The cells were inoculated into a 96-well dish such that 1.0×10^6 cells/100 μL. The cell dispersion was given 100 μL of RPMI medium containing a dispersion of different kind, followed by incubation overnight. These procedures were performed by using serum-free RPMI medium.
The cells were recovered and washed with BD stain buffer. Then, the cells underwent incubation together with Anti-CD11cFITC, 0.25 μg/100 μL (4° C. for 30 minutes), so that the cells were stained. After washing, the cells underwent again incubation with Anti-CD80PE, Anti-CD86PE, or Anti-CD40PE, 0.25 μg/100 μL (4° C. for 30 minutes), so that the cells were stained. After washing at least more than three times, the cells were evaluated by using the flow cytometer (Cytomics FC500, Software: CXP software ver. 2).

[3] = test system: CTL (IFNγ-secreting cells/total CD8 positive cells); test: Evaluation of CTL induction rate, ICS method, after immunization of mice; format: in vivo, C57BL/6N mice; set-up: key to CTL induction rate, Low MPL / CTL induction rate, High MPL: ratio of IFNγ-secreting cells to total CD8 positive cells; conditions: for CTL induction rate, High MPL: high MPL (22.7); for CTL induction rate, High MPL / CTL induction rate, Low MPL: n=3; for CTL induction rate, Low MPL: low MPL (0.0227)
Method: Administration (100 μL/head) was performed by subcutaneous injection at one position on the back under anesthesia. […] For evaluation of cell-mediated immunity, administration was performed once and the assay was performed seven days after administration. For evaluation of humoral immunity, administration was performed twice. The second administration was performed 14 days after the first administration, and assay was performed seven days after the second administration.
The mice were sacrificed on the seventh day after the last administration and had its spleen harvested. The spleen was given RPMI medium (3.0 mL) containing 10% serum and then treated by the BD Falcon cell strainer. Thus there was obtained a suspension of cells. […] The cells were dispersed into RPMI medium containing 10% serum. The number of cells was counted. Thus there was obtained a dispersion of spleen cells.
For restimulation of the antigen, 10% serum-containing RPMI medium (100 μL) containing OVA peptide (40 μg/mL) was added, followed by incubation for three hours. Then, BD GolgiPlug was added such that its concentration was 0.2 μL/100 μL. Cell culture was performed overnight. In the case where the restimulation was not given, a 10% serum-containing RPMI medium not containing OVA peptide was used.
After washing, the cells were stained with Anti-CD8aPE (at 4° C. for 30 minutes), followed by washing again. Then the cells were permeabilized with Cytofix/Cytoperm. After washing, the cells were stained with Anti-IFNγFITC (at 4° C. for 30 minutes). […] CTL induction rate was calculated in terms of the ratio between the IFNγ secreting cells and the total CD8 positive cells.
It is known that MPL activates innate immune system and functions as an adjuvant even when used alone. It is also known that MPL induces cell-mediated immunity. Thus, a comparison was made as to the induction of cell-mediated immunity between MPL used alone and MPL used in combination with a pH-sensitive carrier in the form of the adjuvant composition. Each of the MPL and the adjuvant composition is administered together with an antigen. […] The above-mentioned solution or dispersion was subcutaneously administered once to the back of C57BL/6N mice, and the CTL induction rate was obtained according to the ICS method. The CTL induction rate is expressed in terms of the ratio of the IFNγ-secreting cells to the total CD8 positive cells in a specific area which is hardly affected by dead cells (IFNγ-secreting cells/total CD8 positive cells).

[4] = Table 2, pH-sensitive substance alone
[5] = antigen peptide 3.2 μg, DLPC, deoxycholic acid (160 nmol), subcutaneous once
[6] = antigen peptide 16 μg, DLPC, deoxycholic acid (160 nmol), subcutaneous once
[7] = antigen peptide 80 μg, DLPC, deoxycholic acid (160 nmol), subcutaneous once
[8] = antigen peptide 400 μg, DLPC, deoxycholic acid (160 nmol), subcutaneous once

Row | Molecule | leakage, Alone, pH 5.0 ([1]; Table 1, substance alone) [%] | leakage, Alone, pH 7.4 ([1]; Table 1, substance alone) [%] | CD80 MFI, Amphipathic substance [2] [%] | leakage, Alone, pH 5.0 [1, 4] [%] | leakage, Alone, pH 7.4 [1, 4] [%] | also measured
1 | Cc1c(C)c2c(c(C)c1O)CCC(C)(CCCC(C)CCCC(C)CCCC(C)C)O2 (racemic) [α-tocopherol, DL-α-tocopherol] | 10.6 ± 1.3 | 5.5 ± 0.3 | 43.8 ± 4.9 |  |  | 
2 | C[C@H](CCC(=O)O)[C@H]1CC[C@H]2[C@@H]3[C@H](O)C[C@@H]4C[C@H](O)CC[C@]4(C)[C@H]3CC[C@]12C [Chenodeoxycholic acid] |  |  |  | 14.1 ± 0.9 | 0.7 ± 0.5 | 
3 | CCCCCCCCCC(=O)OC[C@H](COP(=O)([O-])OCC[N+](C)(C)C)OC(=O)CCCCCCCCC [DDPC, 1,2-didecanoyl-sn-glycero-3-phosphatidylcholine] | 37.1 ± 1.3 | 17.4 ± 0.1 | 36.5 ± 1.1 |  |  | 
4 | CCCCCCCCCCCC(=O)OC[C@H](COP(=O)([O-])OCC[N+](C)(C)C)OC(=O)CCCCCCCCCCC [DLPC, 1,2-dilauroyl-sn-glycero-3-phosphatidylcholine] | 5.5 ± 0.9 | 1.8 ± 1.2 | 38.5 ± 2.9 |  |  | fluorescence intensity of CD80PE compared with PBS [2]: remained unchanged from that in the case where PBS was added
5 | CC(CCC(=O)NCC(=O)O)C1CCC2C3CCC4CC(O)CCC4(C)C3CC(O)C12C (stereo not shown) [Glycodeoxycholic acid] |  |  |  | 9.8 ± 0.8 | 1.9 ± 1.2 | 
6 | CC1(C)[C@@H](O[C@H]2O[C@H](C(=O)O)[C@@H](O)[C@H](O)[C@H]2O[C@@H]2O[C@H](C(=O)O)[C@@H](O)[C@H](O)[C@H]2O)CC[C@]2(C)[C@H]3C(=O)C=C4[C@@H]5C[C@@](C)(C(=O)O)CC[C@]5(C)CC[C@@]4(C)[C@]3(C)CC[C@@H]12 [Glycyrrhizinic acid] |  |  |  | 16.7 ± 2.9 | 4.2 ± 1.2 | 
7 | C[C@H](CCC(=O)O)[C@H]1CC[C@H]2[C@@H]3C[C@H](O)[C@@H]4C[C@H](O)CC[C@]4(C)[C@H]3CC[C@]12C [Hyodeoxycholic acid] |  |  |  | 12.6 ± 0.4 | 4.2 ± 0.9 | 
8 | CCCCCCCCCCCC(=O)OCCOCCOCCOCCOCCOCCOCCOCCOCCOCCOCCOCCOCCOCCOCCOCCOCCOCCOCCOCCOCC(OCCOCCOCCOCCOCCOCCOCCOCCOCCOCCOCCOCCOCCOCCOCCOCCOCCOCCOCCOCCO)C1OCC(OCCOCCOCCOCCOCCOCCOCCOCCOCCOCCOCCOCCOCCOCCOCCOCCOCCOCCOCCOCCO)C1OCCOCCOCCOCCOCCOCCOCCOCCOCCOCCOCCOCCOCCOCCOCCOCCOCCOCCOCCOCCO (stereo not shown) [Tween 20, polyoxyethylene sorbitan monolaurate ester] | 74.0 ± 2.0 | 70.4 ± 3.9 | 38.0 ± 3.2 |  |  | 
9 | Monophosphoryl lipid A [MPL alone] |  |  |  |  |  | leakage at a low pH value compared with PBS alone ([1]; MPL (dispersed in PBS or DMSO) in an amount equivalent to MPL content 0.227, FIG. 9(A)): equivalent to that in the case where PBS was used alone; CTL induction rate (%), Adjuvant composition (with antigen not restimulated) ([3]; DLPC with pH-sensitive compound 160 nmol, MPL content 0.227, OVA (80 μg), dispersion, n=1, antigen not restimulated): 0.14%; CTL induction rate (%), Adjuvant composition ([3]; DLPC with pH-sensitive compound 160 nmol, MPL content 0.227, OVA (80 μg), dispersion, n=1, antigen restimulated): 0.25%; CTL induction rate by adjuvant composition (%), Antigen: OVA ([3]; antigen OVA (80 μg), DLPC, MPL content 0.227, deoxycholic acid amount (nmol) varied, dispersion, n=1): 0.18%; CTL induction rate by adjuvant composition (%), Antigen: peptide ([3]; antigen peptide (80 μg), DLPC, MPL content 0.227, deoxycholic acid amount (nmol) varied, dispersion, n=1): 0.22%; CTL induction rate ([3]; antigen peptide (80 μg), MPL content 0.227 or equivalent, DLPC, deoxycholic acid (160 nmol), subcutaneous once, FIGS. 3 and 4): 0.27%; CTL induction rate, High MPL [3, 5]: 0.45; CTL induction rate, High MPL [3, 6]: 0.36; CTL induction rate, High MPL [3, 7]: 0.37; CTL induction rate, High MPL [3, 8]: 0.58; CTL induction rate, Low MPL [3, 5]: 0.14; CTL induction rate, Low MPL [3, 6]: 0.31; CTL induction rate, Low MPL [3, 7]: 0.26; CTL induction rate, Low MPL [3, 8]: 0.46; CTL induction rate (%), Amphipathic substance-MPL ([3]; mixed thin film of amphipathic substance (100 nmol) and MPL (0.227) dispersed in antigen solution, OVA (80 μg), n=1): 0.20%
10 | sorbitan oleic acid ester [Span 80] | 18.1 ± 1.0 | 6.1 ± 0.6 | 39.6 ± 1.8 |  |  | 
11 | OVA: OVA protein (EndoFit Ovalbumin: from InvivoGen), model antigen (protein, UniProt P01012 2-386, looked up) Ovalbumin: GSIGAASMEFCFDVFKELKVHHANENIFYCPIAIMSALAMVYLGAKDSTRTQINKVVRFDKLPGFGDSIEAQCGTSVNVHSSLRDILNQITKPNDVYSFSLASRLYAEERYPILPEYLQCVKELYRGGLEPINFQTAADQARELINSWVESQTNGIIRNVLQPSSVDSQTAMVLVNAIVFKGLWEKAFKDEDTQAMPFRVTEQESKPVQMMYQIGLFRVASMASEKMKILELPFASGTMSMLVLLPDEVSGLEQLESIINFEKLTEWTSSNVMEERKIKVYLPRMKMEEKYNLTSVLMAMGITDVFSSSANLSGISSAESLKISQAVHAAHAEINEAGREVVGSAEAGVDAASVSEEFRADHPFLFCIKHIATNAVLFFGRCVSP |  |  |  |  |  | fluorescence intensity of CD80PE compared with PBS [2]: remained unchanged from that in the case where PBS was added

— patent US11000586B2, “Adjuvant composition, vaccine composition containing the same, and method for producing both of them” (TERUMO KABUSHIKI KAISHA, priority 2013, dated 2021)
